Earlier results on one compound are cited in paper PMC11070408, “Bifunctional octadentate pseudopeptides as Zirconium-89 chelators for immuno-PET applications” (EJNMMI Radiopharmacy and Chemistry, 2024).

Details of this data set: method as in Sarbisheh and Salih [2020]. To be noted: ref Sarbisheh and Salih [2020].

`CC(=O)N(O)CCCCCNC(=O)CCC(=O)N(O)CCCCCNC(=O)CCC(=O)N(O)CCCCCNC(=O)CCC(=O)NCC(CNC(=O)CCC(=O)NCCCCCN(O)C(=O)CCC(=O)NCCCCCN(O)C(=O)CCC(=O)NCCCCCN(O)C(C)=O)Cc1ccc([N+](=O)[O-])cc1` [DFO2]: the solubility in water result is “poor”.
